This note sets out measurements from patent US20080103173A1, “Compounds Having Activity At Nk3 Receptor And Uses Thereof In Medicine” (SMITHKLINE BEECHAM CORPORATION, priority 2004, published 2008).

The target in this assay is T1, NK3 receptor (Homo sapiens, UniProt P29371).
T1 construct: expressed in transfected cells; host or cells: CHO cell lines (plasma membranes)
T1 sequence (P29371 1-465): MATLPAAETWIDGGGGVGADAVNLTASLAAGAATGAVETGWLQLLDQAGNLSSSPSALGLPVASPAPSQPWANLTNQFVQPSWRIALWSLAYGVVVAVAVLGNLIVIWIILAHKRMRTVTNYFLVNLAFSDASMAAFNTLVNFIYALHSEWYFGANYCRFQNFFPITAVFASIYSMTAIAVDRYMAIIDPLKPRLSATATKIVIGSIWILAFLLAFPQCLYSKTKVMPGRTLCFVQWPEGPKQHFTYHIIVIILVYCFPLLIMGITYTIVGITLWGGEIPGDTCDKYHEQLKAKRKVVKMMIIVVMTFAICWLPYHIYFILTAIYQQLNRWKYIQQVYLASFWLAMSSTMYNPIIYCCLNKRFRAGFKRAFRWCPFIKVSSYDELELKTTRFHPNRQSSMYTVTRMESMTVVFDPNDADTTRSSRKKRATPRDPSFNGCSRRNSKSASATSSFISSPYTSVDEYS
Kind of assay: NK3 binding affinity, scintillation proximity assay (SPA), 125I [MePhe7]-NKB. The following applies: membranes from CHO cell lines expressing NK3 receptors; radioligand 125I [MePhe7]-NKB. The procedure: a) Measurement of NK3 Binding Affinity
The NK3 binding affinity of the compounds of the invention was determined using the following scintillation proximity assay (SPA) (see H. M. Sarau et al, J. Pharmacol. Experimental Therapeutics 1997, 281(3), 1303-1311; H. M. Sarau et al, J. Pharmacol. Experimental Therapeutics 2000, 295(1), 373-381; G. A. M. Giardina et al J. Med. Chem 1999, 42, 1053-1065). Polystyrene Leadseeker WGA-SPA beads (Amersham Biosciences) were mixed with plasma membrane prepared from CHO cell lines expressing NK3 receptors in a bead/membrane ratio of 20:1 (w/w) in assay buffer (75 mM Tris pH 7.8, 75mM NaCl, 4 mM MnCl2, 1 mM EDTA, 0.05% Chaps, 1 mM PMSF). The mixture was placed on ice for 20 minutes to allow the formation of membrane/bead complex before BSA was added to a final concentration of 1%. After another 20 minutes incubation on ice, the bead/membrane complex was washed twice and suspended in assay buffer. ^125I [MePhe7]-NKB was then added to the bead/membrane complex. […] After 2-3 hours incubation at room temperature with shaking, the plates were spun for 2 min at 1100 rpm and measured in Viewlux imager (PerkinElmer) for 5 minutes with a 618-nm filter. Inhibition of the radioactive ligand binding to the NK3 receptor was measured by the reduction of signal. pKi was calculated using Kd of the radioactive ligand determined in a separate experiment.
For orientation: Scintillation proximity formats need no separation of bound from free tracer.

pKi: −log10 of the molar value.

The term pKi denotes the negative decadic logarithm of the Ki, by convention in mol/L. A lower pKi goes with a high Ki.

Consider `O=C(N[C@H](c1cccc(F)c1)C1CC1)c1c(CN2CCCC2=O)c(-c2ccccc2)nc2ccccc12` [Example 1, N-[(S)-Cyclopropyl(3-fluorophenyl)methyl]-3-[(2-oxo-1-pyrrolidinyl)methyl]-2-phenyl-4-quinolinecarboxamide], for which the pKi was 8.50.
